In the first assay the test system is apolipoprotein B. In words: Apolipoprotein B (apo B) Inhibition Test. Conditions: HepG2-cells, overnight at 37° C., radioactively labelled leucine, double immunoprecipitation; read-out: IC50 (concentration of the drug needed to reduce apoB secretion to 50% of the control). In kind it is cell-based, human. How it is done:
Cultured human liver cells (HepG2-cells), which synthesize and secrete low-density lipoproteins, were incubated overnight at 37° C. in a liquid medium containing radioactively labelled leucine. Thus radioactively labelled leucine was incorporated into the apolipoprotein B. The liquid medium was decanted and the apolipoprotein B was isolated by means of a double immunoprecipitation, i.e. first an apolipoprotein B-specific antibody (antibody1) was added to the liquid medium and subsequently a second antibody (antibody2) was added which binds specifically to the apoB-antibody1 -complex. The thus formed apoB-antibody1 -antibody2 complex precipitated and was isolated by centrifuge. Quantification of the amount of apolipoprotein B synthesized during the night resulted from measuring the radioactivity of the isolated complex. To measure the inhibiting activity of the test compound, that test compound was added to the liquid medium at different concentrations and the concentration of apolipoprotein B synthesized in the presence of a test compound (concentration apoB(after)) was compared to the concentration of apolipoprotein B which was synthesized in the absence of the test compound (concentration apoB(control)). For each experiment the inhibition of apolipoprotein-B formation was expressed as
% inhibition=100×(1-concentration of apoB(after)/concentration
When more experiments were carried out for the same concentration, the median value of the inhibition calculated for these experiments was calculated. IC50 -values (concentration of the drug needed to reduce apoB secretion to 50% of the control) were also computed.
As to `CCC(C)n1cnn(-c2ccc(N3CCN(c4ccc(OCC5COC(CCn6cncn6)(c6ccc(F)cc6F)O5)cc4)CC3)cc2)c1=O` (stereo not shown) [Compound 26], the IC50 amounted to 300 nM.

Still in this assay, the particulars now being: Homo sapiens, HepG2-cells, overnight at 37° C., radioactively labelled leucine, double immunoprecipitation; read-out: IC50 (concentration of the drug needed to reduce apoB secretion to 50% of the control).
For `CCC(C)n1cnn(-c2ccc(N3CCN(c4ccc(OC[C@H]5CO[C@](Cn6cncn6)(c6ccc(F)cc6F)O5)cc4)CC3)cc2)c1=O` (stereo partly drawn) [Compound 19, cis-2-[4-[4-[4-[[2-(2,4-difluorophenyl)-2-(1H-1,2,4-triazol-1yl-methyl)-1,3-dioxolan-4-yl]methoxy]phenyl]-1-piperazinyl]phenyl]-2,4-dihydro-4-(1-methylpropyl)-3H-1,2,4-triazol-3-one], the IC50 worked out at 170 nM. Take `CCC(C)n1cnn(-c2ccc(N3CCN(c4ccc(OC[C@H]5CO[C@](Cn6cncn6)(c6ccc(Cl)cc6Cl)O5)cc4)CC3)cc2)c1=O` (stereo partly shown) [Compound 22]: the IC50 worked out at 390 nM. Same read-out and setting: next, `CC(C)n1cnn(-c2ccc(N3CCN(c4ccc(OC[C@H]5CO[C@](Cn6cncn6)(c6ccc(Cl)cc6Cl)O5)cc4)CC3)cc2)c1=O` (relative stereo) [Compound 17]: 720 nM; `CC(C)n1cnn(-c2ccc(N3CCN(c4ccc(OC[C@H]5CO[C@](Cn6ccnc6)(c6ccc(Cl)cc6Cl)O5)cc4)CC3)cc2)c1=O` (relative stereo) [Compound 7]: 630 nM; `CCC(C)n1cnn(-c2ccc(N3CCN(c4ccc(OCC5COC(CCn6cncn6)(c6ccc(Cl)cc6)O5)cc4)CC3)cc2)c1=O` (stereo not shown) [Compound 27]: 270 nM.

Take `CCCn1c(C)nn(-c2ccc(N3CCN(c4ccc(OC[C@H]5CO[C@](Cn6ccnc6)(c6ccc(Cl)cc6Cl)O5)cc4)CC3)cc2)c1=O` (relative stereo) [Compound 4]: the IC50 was 1000 nM. On the same count and under the same terms, under `CC(C)n1cnn(-c2ccc(N3CCN(c4ccc(OC[C@H]5CO[C@](Cn6cncn6)(c6ccc(F)cc6F)O5)cc4)CC3)cc2)c1=O` (relative stereo) [Compound 23] stands 340 nM; under `CC(C)n1cnn(-c2ccc(N3CCN(c4ccc(OC[C@H]5CO[C@](Cn6cccn6)(c6ccc(F)cc6F)O5)cc4)CC3)cc2)c1=O` (relative stereo) [Compound 10], 290 nM.

In the case of `CC(C)n1cnn(-c2ccc(N3CCN(c4ccc(OC[C@H]5CO[C@](Cn6cncn6)(c6cccc7ccccc67)O5)cc4)CC3)cc2)c1=O` (relative stereo) [Compound 24], the IC50 worked out at 910 nM. Same read-out and setting: next, `CCC(C)n1cnn(-c2ccc(N3CCN(c4ccc(OCC5COC(CCn6cncn6)(c6ccc(F)cc6F)O5)cc4)CC3)cc2)c1=O` (stereo not shown) [Compound 25]: 230 nM.

For `CCC(C)n1cnn(-c2ccc(N3CCN(c4ccc(OC[C@H]5CO[C@](Cn6cncn6)(c6ccc(F)cc6)O5)cc4)CC3)cc2)c1=O` (stereo partly shown) [Compound 20], the IC50 came out at 860 nM.

For the molecule `CC(C)n1cnn(-c2ccc(N3CCN(c4ccc(OC[C@H]5CO[C@](Cn6ccnc6)(c6cccc7ccccc67)O5)cc4)CC3)cc2)c1=O` (relative stereo) [Compound 9], the IC50 is 560 nM.

The record behind these values is patent US5922718A, “Triazolones as apolipoprotein-B synthesis inhibitors” (Janssen Pharmaceutica, N.V., priority 1995, dated 1999).
